In US20250073211A1, “USE OF ERGOTHIONEINE TO SUPPRESS DELETERIOUS EFFECTS OF SENESCENCE” (NANJING NUTRABUILDING BIO-TECH CO., LTD., priority 2022, published 2025):

Experiments:
[1] = test system: HDFn cells; assay: Senostatic Profile Assay (senescence markers Ki67, p21, p16, SAβG under chronic supplementation); format: cell-based, Human; settings: for percentage of SAβG positive HDFn cells: untreated 9.8%±2.7
Method: (§1) HDFn cells (C0045C, Thermo Scientific, US) were obtained and proliferated to passage 32 (population doubling 58) in standard DMEM proliferation medium (10% FBS) at standard culture conditions (37°° C., 20% O2, 5% CO2). At each passage, cells were cryopreserved and banked. The cells were deemed replicatively senescent at passage 32. When required, cryovial contents was thawed gradually into 5 ml pre-warmed 10% FBS media with gentle pipetting and centrifuged. The supernatant was discarded, and the cell pellet was resuspended into 10% media and cells were counted using a hemocytometer and trypan blue.
Treatment conditions tested in this assay were 0, 0.5, 3.0 and 30 μM of EGT as a constant supplementation in standard DMEM (10% FBS). HDFn cells were thawed at passage 20 and seeded at 1.5×10^5 cells per flask. Three flasks per condition were seeded. Media was changed every three days. At passages 22, 24, and 26, the HDFn cells were seeded onto 48-well plates at 10,000 cells per well in triplicates per flask, and cultured in DMEM media containing 0, 0.5, 3.0, and 30 μM of EGT, respectively. The cells were proliferated until 70% confluence or for 7 days. The cells were then washed with PBS and fixed with 2% PFA, and stored at 4° C. until immunostaining. For β-galactosidase staining, the staining solution was added onto the cells immediately after fixation and incubated at 37° C. for 24 h. The staining solution was removed, and the wells filled with PBS until imaging. As a positive control for senescence phenotype, one set of wells from the untreated flasks were seeded. At 70% confluence, the cells were treated with 600 μM of hydrogen peroxide in serum-free DMEM for 2 h, then incubated with standard DMEM proliferation medium for 5 days to allow the senescence phenotype to develop. The cells were fixed and stained in the same manner as the other treatment conditions.
(§2) The panel of senescence markers, Ki67, p16 and p21 were analyzed by immunohistochemical staining using an HRP/DAB kit (ab64264, Abcam, UK). • Antibody details • 1) Ki67—1:1000 dilution, anti-rabbit, ab92742, Abcam; • 2) p16—1:500 dilution, anti-rabbit, ab 108349, Abcam; • 3) p21—1:100 dilution, anti-rabbit, ab 109542, Abcam.
(§3) The cells were counterstained with hematoxylin.
(§4) The senescence-associated β-galactosidase solutions and staining was performed according to Dimri et al, A biomarker that identifies senescent human cells in culture and in aging skin in vivo, Proc. Natl. Acad. Sci. 1995 Sep. 26; 92 (20): 9363-9367. The cells were counterstained with Nuclear Fast Red.
(§5) All staining were imaged on an EVOS XL core microscope at 100× magnification.
(§6) The images were white balanced using a macro on ImageJ. Cells were manually counted using the cell counter plugin and recorded. Graphs and statistics were created using GraphPad Prism 5. For each dataset, a two-way ANOVA was performed with Bonferroni posthoc test against the untreated control. P-values on the graphs are shown as *p<0.05, ** p<0.01, *** p<0.001.

[2] = test system: HDFn cells; assay: Senolytic Profile Assay (cell counts and senescence markers after 3 days of acute treatment at passage 31); format: cell-based, Human; settings: for Ki67-positive population: day 9 to 12 timepoint, 0 μM: 3.4%±1.5, p<0.001; for percentage of p21 positive HDFn cells / percentage of p16 positive HDFn cells: timepoint 1 (day 0 to 3); for percentage of p21 positive HDFn cells: 0 μM: 63.1%±9.3; for percentage of p16 positive HDFn cells: 0 μM: 67.8%±4.7; for cell counts: 3 days of treatment
Method: as §1
Treatment conditions tested in this assay were 0, 3, 30 and 300 μM of EGT as an acute supplementation over 3 days in standard DMEM (10% FBS). Positive controls for senolytic activity were 13 μM of Navitoclax and 600 μM of Fisetin. A 0.1% DMSO condition was introduced as a vehicle control for Fisetin. At passage 31, the HDFn cells were seeded at 10,000 cells per well in triplicate wells onto 48-well plates. After 2 days of acclimatization, cells were treated for 3 days with the conditions above. The cells were then washed with PBS and fixed with 2% PFA. The wells were filled with PBS and stored at 4° C. until immunostaining. For β-galactosidase staining, the staining solution was added onto the cells immediately after fixation and incubated at 37° C. for 24 h. The staining solution was removed, and the wells filled with PBS until imaging. This was repeated for timepoints day 0 to 3, day 6 to 9, and day 9 to 12.
as §2, §3, §4, §5, §6

Q: With `C[N+](C)(C)[C@@H](Cc1c[nH]c(=S)[nH]1)C(=O)[O-]` [EGT, L-Ergothioneine] as the molecule, how does the “effect on the percentage of p16 positive HDFn cells” value ([1]; across all three passages (22, 24, 26), EGT 0.5, 3.0, 30 μM) read?
A: The value was “did not robustly affect”.

Q: What about the “change of percentage of Ki67 positive HDFn cells compared with the untreated control” value ([1]; all three passages (22, 24, 26), EGT 0.5, 3.0, 30 μM constant supplementation) of the same molecule?
A: The value was “did not result in statistically significant changes”.

Q: What about the senostatic effect ([1]; low chronic doses (0.5-30 μM) in HDFn cells) of the same molecule?
A: The senostatic effect was “can confer senostatic effects”.

Q: What about the “reduction of the percentage of p21 positive HDFn cells” value ([1]; passage 22, 0.5 μM EGT, p<0.001) of the same molecule?
A: Its value is 16.5%.

Q: And the “percentage of p21 positive HDFn cells” value ([1]; passage 22, 0.5 μM EGT, untreated 82.5%±2.3, mean±SEM)?
A: The value was 66.0%±2.4.

Q: And the “reduction of the percentage of p21 positive HDFn cells” value ([1]; passage 22, 3 μM EGT, p<0.001)?
A: The value was 20.1%.

Q: What about the “reduction of the percentage of p21 positive HDFn cells” value ([1]; passage 22, 30 μM EGT, p<0.001) of the same molecule?
A: Its value is 21.8%.

Q: And the “reduction in p16-positive cells” value ([1]; passage 24, 0.5 μM EGT, p<0.001)?
A: Its value is 15%.

Q: What about the “change of percentage of p21 positive HDFn cells” value ([1]; passage 24 or 26, EGT 0.5, 3.0, 30 μM) of the same molecule?
A: The value was “did not result in statistically significant changes”.

Q: And the “percentage of SAβG positive HDFn cells” value ([1]; passage 26, 0.5 μM EGT, p<0.001)?
A: Its value is 4.8%±5.7.

Q: What about the “percentage of SAβG positive HDFn cells” value ([1]; passage 26, 3.0 μM EGT, p<0.001) of the same molecule?
A: Its value is 3.5%±2.0.

Q: What about the “percentage of SAβG positive HDFn cells” value ([1]; passage 26, 30 μM EGT, p<0.001) of the same molecule?
A: The value was 5.0%±2.9.

Q: And the “mean SAβG reduction” value ([1]; passage 26, mean over 0.5, 3.0 and 30 μM EGT)?
A: The value was 50%.

Q: What about the senolytic activity ([2]; HDFn cells at passage 31, at up to 300 μM) of the same molecule?
A: The senolytic activity was “not senolytic”.

Q: What about the Ki67-positive population ([2]; passage 31, 30 μM EGT) of the same molecule?
A: Its Ki67-positive population is 9.2%±3.8.

Q: And the “percentage of p21 positive HDFn cells” value ([2]; passage 31, 30 μM EGT)?
A: Its value is 29.1%±7.4.

Q: And the “percentage of p16 positive HDFn cells” value ([2]; passage 31, 30 μM EGT)?
A: Its value is 7.0%±2.8.

Q: And the Ki67-positive population ([2]; passage 31, 300 μM EGT)?
A: Its Ki67-positive population is 11.4%±2.6.

Q: What about the “percentage of p21 positive HDFn cells” value ([2]; passage 31, 300 μM EGT) of the same molecule?
A: Its value is 27.0%±2.0.

Q: And the “percentage of p16 positive HDFn cells” value ([2]; passage 31, 300 μM EGT)?
A: Its value is 11.7%±5.9.

Q: And the cell counts ([2]; passage 31, 3, 30 and 300 μM EGT vs 0 μM)?
A: Its cell counts is “did not change much”.

Q: What about the “effect on the percentage of SAβG positive HDFn cells” value ([2]; passage 31, EGT 3, 30, 300 μM, any timepoint) of the same molecule?
A: The value was “no statistically significant effect”.

Q: For `O=c1c(O)c(-c2ccc(O)c(O)c2)oc2cc(O)ccc12` [FIS, Fisetin, reference compound], which cell counts ([2]; passage 31, 600 μM Fisetin, positive control) is on record?
A: The cell counts was “dramatically decreased”.

Q: For `CC1(C)CCC(c2ccc(Cl)cc2)=C(CN2CCN(c3ccc(C(=O)NS(=O)(=O)c4ccc(N[C@H](CCN5CCOCC5)CSc5ccccc5)c(S(=O)(=O)C(F)(F)F)c4)cc3)CC2)C1` [NAV, Navitoclax, reference compound], which cell counts ([2]; passage 31, 13 μM Navitoclax, positive control) is on record?
A: The cell counts was “dramatically decreased”.

Q: With `OO` [hydrogen peroxide, reference compound] as the molecule, how does the “SAβG levels (senescence-associated β-galactosidase positive HDFn cells)” value ([1]; 600 μM hydrogen peroxide for 2 h, then 5 days, positive control for senescence phenotype) read?
A: The value was “remained low”.
